Laboratory results: patent KR20210056931A, “피리메타민을 유효성분으로 포함하는 면역 관련 질환의 치료 또는 예방용 약학 조성물” (priority 2019, dated 2021)
Values joined by “and” are separate entries in the source; they are usually repeats but may differ in a detail not shown here. Equal entries are not always repeated.

How the values were obtained:
TNF-α [1] = experiment: TNF-α expression inhibition in Raw264.7, comparison with DMARDs, Experiment 2-1; type: cell-based; conditions: 6 h pretreatment, LPS 10 ng/mL, MTX 344 nM, HCQ 610 nM, PYR 50 ng/mL, CsA 391 ng/mL, AZA 25 ng/mL, SFZ 750 ng/mL
[2] = test system: rheumatoid arthritis model, DBA-1J Mice [류마티스 관절염 모델]; experiment: Arthritis score in rheumatoid arthritis animal model, dose regimen study, Experiment 6; type: in vivo, mouse; conditions: HCQ 80 mg/kg/day QD PO, PG 25 mg/kg/day QD PO; for Arthritis score: MTX 2 mg/kg/2day PO, TFC 10 mg/kg/day BID PO (G3-G6); for Arthritis score (in words): TFC 10 mg/kg/day BID PO
[3] = test system: rheumatoid arthritis model, DBA-1J Mice [류마티스 관절염 모델]; experiment: Arthritis score in rheumatoid arthritis animal model, Experiment 5; type: in vivo, mouse; conditions: G3: MTX 2 mg/kg/2day PO
[4] = test system: rheumatoid arthritis model, DBA-1J Mice [류마티스 관절염 모델]; experiment: Histopathological examination in rheumatoid arthritis animal model, dose regimen study, Experiment 6; type: in vivo, mouse; conditions: Day 14; MTX 2 mg/kg/2day PO, HCQ 80 mg/kg/day QD PO, PG 25 mg/kg/day QD PO, TFC 10 mg/kg/day BID PO (G3-G6)
[5] = test system: rheumatoid arthritis model, DBA-1J Mice [류마티스 관절염 모델]; experiment: Paw edema in rheumatoid arthritis animal model, Experiment 5; type: in vivo, mouse; conditions: G3: MTX 2 mg/kg/2day PO
[6] = Hematological examination, Experiment 6-4; type: in vivo, mouse
TNF-α [7] = experiment: Plasma TNF-α (ELISA), Experiment 6-5; type: in vivo, mouse; conditions: for Plasma TNF-α: Day 14, MTX 2 mg/kg/2day PO, HCQ 80 mg/kg/day QD PO, PG 25 mg/kg/day QD PO, TFC 10 mg/kg/day BID PO (G3-G6); for Plasma TNF-α (in words): HCQ, PG, TFC groups
[8] = test system: rheumatoid arthritis model, DBA-1J Mice [류마티스 관절염 모델]; experiment: Paw edema in rheumatoid arthritis animal model, dose regimen study, Experiment 6; type: in vivo, mouse; conditions: Day 14, MTX 2 mg/kg/2day PO, HCQ 80 mg/kg/day QD PO, PG 25 mg/kg/day QD PO, TFC 10 mg/kg/day BID PO (G3-G6)
[9] = test system: rheumatoid arthritis model, DBA-1J Mice [류마티스 관절염 모델]; experiment: Histopathological examination in rheumatoid arthritis animal model, Experiment 5; type: in vivo, mouse; conditions: Day 14; G3: MTX 2 mg/kg/2day PO
TNF-α [10] = experiment: TNF-α expression inhibition in Raw264.7, comparison with tofacitinib, Experiment 2-2; type: cell-based; conditions: 6 h pretreatment, LPS 10 ng/mL 16 h
TNF-α [11] = experiment: TNF-α expression inhibition in Raw264.7, comparison with hydroxychloroquine and proguanil, Experiment 2-3; type: cell-based; conditions: for TNF-α expression: PY 0.2 uM, HCQ 0.61 uM, PG 5 uM, LPS 10 ng/mL, 24 h co-treatment
STAT3 = STAT3 activity (nuclear translocation) in Raw264.7, Experiment 3; type: cell-based; conditions: 50 ng/ml, 2 h pretreatment; LPS 100 ng/ml 16 h; Fig. 6
[12] = Day 14, G3: MTX 2 mpk qd PO, G12: Py 15 mpk qd PO

Cn1cnc([N+](=O)[O-])c1Sc1ncnc2nc[nH]c12 [AZA, Azathioprine]
TNF-α expression (TNF-α [1]; 2hr): 405.0 pg/mL
TNF-α expression (TNF-α [1]; 24hr): 3539.9 pg/mL

O=C(O)c1cc(/N=N/c2ccc(S(=O)(=O)Nc3ccccn3)cc2)ccc1O [SFZ, Sulfasalazine]
TNF-α expression (TNF-α [1]; 2hr): 280.7 pg/mL
TNF-α expression (TNF-α [1]; 24hr): 3578.2 pg/mL

CN(Cc1cnc2nc(N)nc(N)c2n1)c1ccc(C(=O)N[C@@H](CCC(=O)O)C(=O)O)cc1 [메토트렉세이트, Methotrexate]
Arthritis score ([2]; Day 0): 2.5±1.0 total score
Arthritis score ([2]; Day 2): 3.7±1.6 total score
Arthritis score ([2]; Day 5): 5.0±2.4 total score
Arthritis score ([2]; Day 7): 6.0±2.9 total score
Arthritis score ([2]; Day 9): 6.3±2.9 total score
Arthritis score ([2]; Day 12): 7.2±2.7 total score
Arthritis score ([2]; Day 14): 7.8±3.4 total score
Arthritis score ([3]; Day 0): 2.3±1.6 Total score
Arthritis score ([3]; Day 2): 2.9±1.8 Total score
Arthritis score ([3]; Day 4): 4.6±2.9 Total score
Arthritis score ([3]; Day 7): 5.7±2.5 Total score
Arthritis score ([3]; Day 9): 6.0±2.4 Total score
Arthritis score ([3]; Day 11): 6.6±2.4 Total score
Arthritis score ([3]; Day 14): 6.9±2.5 Total score
Bone destruction [4]: 1.8±1.0
Cartilage damage [4]: 1.0±0.6
Histopathological examination, total [4]: 5.7±1.2
Synovium proliferation [4]: 2.8±0.4
Paw edema, LEFT ([5]; Day 0): 0.10 ± 0.01 mL
Paw edema, RIGHT ([5]; Day 0): 0.10 ± 0.01 mL
Paw edema, LEFT ([5]; Day 14): 0.13 ± 0.04 mL
Paw edema, RIGHT ([5]; Day 14): 0.16 ± 0.05 mL
%BASO [6, 12]: 0.6±0.3%
%EOS [6, 12]: 1.8±1.7%
%LUC [6, 12]: 2.8±1.2%
%LYM [6, 12]: 40.8±9.9%
%MONO [6, 12]: 4.2±1.5%
%NEUT [6, 12]: 49.8±11.7%
%RETIC [6, 12]: 0.63±1.16%
HCT [6, 12]: 38.2±6.0%
HDW [6, 12]: 2.15 ± 0.13 g/dL
HGB [6, 12]: 10.9 ± 1.7 g/dL
MCH [6, 12]: 12.8 ± 0.8 pg
MCV [6, 12]: 44.8 ± 2.9 fL
MPV [6, 12]: 7 ± 0.8 fL
PLT [6, 12]: 440±386 10^3 cell/μL
RDW [6, 12]: 23.4±3.7%
WBC [6, 12]: 4.55±0.52 10^3 cell/μL
Hematotoxicity (in words) ([6]; G3 (MTX)): 적혈구와 혈소판 수치가 감소하는 독성이 나타났다
Plasma TNF-α (TNF-α [7]): 769.1 pg/mL
Paw edema, HL, mean [8]: 0.16 mL
Paw edema, HR, mean [8]: 0.16 mL
Paw edema, HL, individual animal ([8]; listed as MTX): 0.19 mL and 0.16 mL and 0.15 mL and 0.17 mL and 0.18 mL and 0.11 mL
Paw edema, HR, individual animal ([8]; listed as MTX): 0.17 mL and 0.14 mL and 0.19 mL and 0.20 mL and 0.13 mL and 0.11 mL
Bone destruction [9]: 1.3±1.6
Cartilage damage [9]: 1.0±1.4
Histopathological examination, total [9]: 3.6±4.5
Synovium proliferation [9]: 1.3±1.6
TNF-α expression (TNF-α [1]; 2hr): 312.8 pg/mL
TNF-α expression (TNF-α [1]; 24hr): 3464.6 pg/mL

C[C@@H]1CCN(C(=O)CC#N)C[C@@H]1N(C)c1ncnc2[nH]ccc12 [토파시티닙]
TNF-α expression (TNF-α [10]; TFN 100 nM): 535.7 pg/mL
TNF-α expression (TNF-α [10]; TFN 200 nM): 538.5 pg/mL
Arthritis score ([2]; Day 0): 2.5±1.0 total score
Arthritis score ([2]; Day 2): 4.5±1.4 total score
Arthritis score ([2]; Day 5): 6.5±2.5 total score
Arthritis score ([2]; Day 7): 8.7±2.3 total score
Arthritis score ([2]; Day 9): 9.0±2.5 total score
Arthritis score ([2]; Day 12): 10.3±2.6 total score
Arthritis score ([2]; Day 14): 11.3±3.3 total score
Arthritis score (in words) [2]: 관절염 지수가 개선되지 않았다
Bone destruction [4]: 2.5±0.5
Cartilage damage [4]: 1.8±0.4
Histopathological examination, total [4]: 7.3±0.8
Synovium proliferation [4]: 3.0±0.0
Plasma TNF-α (TNF-α [7]): 885.8 pg/mL
Plasma TNF-α (in words) (TNF-α [7]): 혈장 TNF-α가 감소하지 않은
Paw edema, HL, mean [8]: 0.15 mL
Paw edema, HR, mean [8]: 0.16 mL
Paw edema, HL, individual animal ([8]; listed as TFC): 0.13 mL and 0.12 mL and 0.18 mL and 0.14 mL and 0.17 mL
Paw edema, HR, individual animal ([8]; listed as TFC): 0.19 mL and 0.18 mL and 0.13 mL and 0.14 mL and 0.12 mL

[H]/N=C(\N/C(=N/[H])Nc1ccc(Cl)cc1)NC(C)C [프로구아닐]
Arthritis score ([2]; Day 0): 2.5±1.0 total score
Arthritis score ([2]; Day 2): 4.5±1.0 total score
Arthritis score ([2]; Day 5): 6.7±1.2 total score
Arthritis score ([2]; Day 7): 8.3±1.5 total score
Arthritis score ([2]; Day 9): 9.5±2.2 total score
Arthritis score ([2]; Day 12): 10.2±1.6 total score
Arthritis score ([2]; Day 14): 11.2±1.2 total score
Arthritis score (in words) [2]: 관절염 지수가 개선되지 않았다
TNF-α expression (TNF-α [11]): 988.1
TNF-α expression inhibition (TNF-α [11]; drug treatment 2 h or 24 h, pyrimethamine 0.2 μM, proguanil 5 μM): TNF-α의 발현량을 억제하지 못했고
Bone destruction [4]: 2.7±0.8
Cartilage damage [4]: 2.3±0.8
Histopathological examination, total [4]: 7.8±1.9
Synovium proliferation [4]: 2.8±0.4
Plasma TNF-α (TNF-α [7]): 904.4 pg/mL
Plasma TNF-α (in words) (TNF-α [7]): 혈장 TNF-α가 감소하지 않은
Paw edema, HL, mean [8]: 0.15 mL
Paw edema, HR, mean [8]: 0.16 mL
Paw edema, HL, individual animal ([8]; listed as PG): 0.13 mL and 0.14 mL and 0.16 mL and 0.15 mL and 0.17 mL and 0.12 mL
Paw edema, HR, individual animal ([8]; listed as PG): 0.16 mL and 0.19 mL and 0.14 mL and 0.13 mL

CCN(CCO)CCCC(C)Nc1ccnc2cc(Cl)ccc12 (centres unmarked) [히드록시클로로퀸, Hydroxychloroquine]
Arthritis score ([2]; Day 0): 2.5±1.2 total score
Arthritis score ([2]; Day 2): 4.0±0.6 total score
Arthritis score ([2]; Day 5): 6.5±0.8 total score
Arthritis score ([2]; Day 7): 9.3±2.0 total score
Arthritis score ([2]; Day 9): 10.3±2.1 total score
Arthritis score ([2]; Day 12): 11.3±2.5 total score
Arthritis score ([2]; Day 14): 12.0±2.8 total score
Arthritis score (in words) [2]: 관절염 지수가 개선되지 않았다
TNF-α expression (TNF-α [11]): 762.2
Bone destruction [4]: 2.7±0.5
Cartilage damage [4]: 2.0±1.1
Histopathological examination, total [4]: 7.7±1.5
Synovium proliferation [4]: 3.0±0.0
Plasma TNF-α (TNF-α [7]): 839.5 pg/mL
Plasma TNF-α (in words) (TNF-α [7]): 혈장 TNF-α가 감소하지 않은
STAT3 nuclear translocation (STAT3): LPS 16 시간 자극에 의한 STAT3의 핵이동을 억제함
Paw edema, HL, mean [8]: 0.17 mL
Paw edema, HR, mean [8]: 0.16 mL
Paw edema, HL, individual animal ([8]; listed as HCQ): 0.17 mL and 0.13 mL and 0.19 mL and 0.15 mL and 0.16 mL
Paw edema, HR, individual animal ([8]; listed as HCQ): 0.19 mL and 0.15 mL and 0.13 mL and 0.16 mL and 0.18 mL and 0.14 mL
TNF-α expression (TNF-α [1]; 2hr): 339.5 pg/mL
TNF-α expression (TNF-α [1]; 24hr): 3564.6 pg/mL
